From PMC9156754, “Functional and phylogenetic analysis of TetX variants to design a new classification system” (Communications Biology, 2022)
In brackets after ≈: the same amount, converted by molar mass. Like-named read-outs stand apart in the source and are kept apart here.

How the values were obtained:
E. coli 25922 = test system: T1, E. coli 25922; assay: microbe, parasite or virus in culture; design: broth microdilution MIC, growth of E. coli, CLSI guidelines; conditions: Escherichia coli
T1 construct: ATCC 25922
Description: (§1) The MICs of three antibiotics (tetracycline, minocycline, and tigecycline) for strains were determined using the microbroth dilution method and the results were interpreted according to the CLSI guidelines. For tigecycline, the breakpoint was interpreted according to the FDA criteria (susceptible, ≤2 mg/L; intermediate, 4 mg/L; resistant, ≥8 mg/L)[9]. E. coli strain ATCC 25922 was used as a quality control. The tet(X2) (WP_063856436.1), tet(X3) (WP024160783), and tet(X4) (WP094309310) genes were amplified from dairy cows’ clinical isolates[25] by PCR with primers listed in Supplementary Table 1. Then these genes were constructed into pBAD-18Kan vector and IPTG-inducible pET28b vector, respectively. The recombinant plasmids pBAD-18-tet(X2), pBAD-18-tet(X3) and pBAD-18-tet(X4) were transformed into E. coli BW25113 and followed by antimicrobial susceptibility tests. In addition, the recombinant plasmids pET28-6×His-tet(X2), pET28-6×His-tet(X3) and pET28-6×His-tet(X4) were transformed into E. coli strain BL21(DE3) for protein purification. Point mutations were introduced into the tet(X2) gene, tet(X3) gene and tet(X4) by using the QuickChange (Stratagene) commercial kit, following the manufacturer’s instructions, and confirmed by sequencing. Primers used in mutagenesis are also listed in Supplementary Table 1.

[1] = test system: T2, Escherichia coli Vector control; assay: microbe, parasite or virus in culture; design: broth microdilution MIC, growth of E. coli, CLSI guidelines; conditions: empty pBAD18 vector
T2 construct: BW25113 empty pBAD18-Kan vector
Description: as §1

[2] = test system: CN(C)c1cc(NC(=O)CNC(C)(C)C)c(O)c2c1C[C@H]1C[C@H]3[C@H](N(C)C)C(=O)C(C(N)=O)=C(O)[C@@]3(O)C(=O)C1=C2O; assay: purified protein; assay type: biochemical, Escherichia coli; conditions: 0.1 M TAPS pH 8.5, 5 mM MgCl2, 500 µM NADPH, ambient temperature

## CN(C)c1cc(NC(=O)CNC(C)(C)C)c(O)c2c1C[C@H]1C[C@H]3[C@H](N(C)C)C(=O)C(C(N)=O)=C(O)[C@@]3(O)C(=O)C1=C2O [tigecycline]
E. coli 25922; read-out: MIC (mg/L) / TGC
  MIC: 0.25 mg/L (≈ 0.427 µM)
[1]; read-out: MIC (mg/L) / TGC
  MIC: 0.5 mg/L (≈ 0.854 µM)

## CN(C)c1ccc(O)c2c1C[C@H]1C[C@H]3[C@H](N(C)C)C(O)=C(C(N)=O)C(=O)[C@@]3(O)C(O)=C1C2=O [minocycline]
E. coli 25922; read-out: MIC (mg/L) / MIN
  MIC: 0.25 mg/L (≈ 0.546 µM)
[1]; read-out: MIC (mg/L) / MIN
  MIC: 1 mg/L (≈ 2.19 µM)

## CN(C)[C@@H]1C(O)=C(C(N)=O)C(=O)[C@@]2(O)C(O)=C3C(=O)c4c(O)cccc4[C@@](C)(O)[C@H]3C[C@@H]12 [tetracycline]
E. coli 25922; read-out: MIC (mg/L) / TET^a
  MIC: 1 mg/L (≈ 2.25 µM)
[1]; read-out: MIC (mg/L) / TET^a
  MIC: 2 mg/L (≈ 4.5 µM)

## Tet(X4) (Escherichia coli)
[2]
  Km: 1.73 ± 0.09 µM
  kcat: 2 ± 0.02 s⁻¹
  kcat/Km: 1.16e+06 M⁻¹ s⁻¹
